Assay results: ChEMBL document CHEMBL1157937, “Discovery of novel leukotriene A4 hydrolase inhibitors based on piperidine and piperazine scaffolds” (Bioorg Med Chem Lett, 2010)

Key:
[1] = molecular target: T1, Leukotriene A-4 hydrolase (Homo sapiens, UniProt P09960)
T1 sequence (P09960 whole entry): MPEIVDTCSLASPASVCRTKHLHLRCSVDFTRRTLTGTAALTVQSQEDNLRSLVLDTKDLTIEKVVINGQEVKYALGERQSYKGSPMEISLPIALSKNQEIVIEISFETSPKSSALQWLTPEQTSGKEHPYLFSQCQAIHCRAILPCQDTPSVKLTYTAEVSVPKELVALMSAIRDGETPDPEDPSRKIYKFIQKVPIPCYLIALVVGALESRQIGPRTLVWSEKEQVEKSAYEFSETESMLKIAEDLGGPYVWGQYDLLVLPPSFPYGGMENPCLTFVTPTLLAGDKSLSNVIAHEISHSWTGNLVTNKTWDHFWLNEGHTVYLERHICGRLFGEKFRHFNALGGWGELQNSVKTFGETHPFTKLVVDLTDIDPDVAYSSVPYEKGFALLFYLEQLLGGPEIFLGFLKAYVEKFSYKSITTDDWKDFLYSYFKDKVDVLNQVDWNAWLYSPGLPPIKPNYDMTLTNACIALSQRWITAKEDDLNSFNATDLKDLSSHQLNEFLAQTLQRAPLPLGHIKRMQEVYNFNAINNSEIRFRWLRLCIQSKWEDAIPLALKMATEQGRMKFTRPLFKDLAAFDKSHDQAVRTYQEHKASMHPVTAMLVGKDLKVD
Description: Inhibition of human recombinant LTA4H hydrolysis assessed as inhibition of LTB4 formation by LC-MS/MS

[2] = molecular target: T1, Leukotriene A-4 hydrolase; remark: listed apart in the source
Description: Inhibition of human LTA4H hydrolysis assessed as inhibition of Ca2+ ionophore-stimulated LTB4 formation in human whole blood by ELISA

**Q.** How did the IC50 [1] turn out when `c1cc(-c2ccc(Cc3ccc(OC[C@@H]4CCCCN4)cc3)cc2)cs1` was run?
**A.** 0.06 µM

**Q.** Which results are given for `c1ccc(-c2ccc(Oc3ccc(OC[C@H]4CCCCN4)cc3)cc2)cc1`?
**A.** IC50 [1]: 0.096 µM; IC50 [2]: 0.029 µM

**Q.** For `c1ccc(-c2ccc(Oc3ccc(OC[C@@H]4CCCCN4)cc3)cc2)cc1`, which IC50 [1] is on record?
**A.** 0.114 µM

**Q.** What about the IC50 [2] of the same compound?
**A.** 0.043 µM

**Q.** For `Fc1ccc(Oc2ccc(OC[C@@H]3CCCCN3)cc2)cc1`, which IC50 [1] is on record?
**A.** 0.174 µM

**Q.** What about the IC50 [2] of the same compound?
**A.** 0.09 µM

**Q.** For `Clc1ccc(Cc2ccc(OC[C@H]3CCCCN3)cc2)cc1`, which IC50 [1] is on record?
**A.** 0.315 µM

**Q.** Which IC50 [1] does the source give for `Clc1ccc(Cc2ccc(OC[C@@H]3CCCCN3)cc2)cc1` here?
**A.** 0.438 µM

**Q.** `O=C(O)CN1CCCC[C@H]1COc1ccc(Oc2ccc(Cl)cc2)cc1` was tested. Which IC50 [1] did it give?
**A.** 0.88 µM

**Q.** For `O=C(O)CCCN1CCCC[C@@H]1COc1ccc(Oc2ccc(Cl)cc2)cc1`, which IC50 [1] is on record?
**A.** 0.053 µM

**Q.** What about the IC50 [2] of the same compound?
**A.** 0.006 µM

**Q.** How did the IC50 [1] turn out when `Clc1ccc(Oc2ccc(OC[C@@H]3CCCCN3Cc3ncon3)cc2)cc1` was run?
**A.** 6.9 µM

**Q.** For `O=C(O)CCN1CCCC[C@H]1COc1ccc(Oc2ccc(Cl)cc2)cc1`, which IC50 [1] is on record?
**A.** 0.212 µM

**Q.** For `O=C(O)CCCN1CCCC[C@H]1COc1ccc(Oc2ccc(Cl)cc2)cc1`, which IC50 [1] is on record?
**A.** 0.106 µM

**Q.** And the IC50 [2]?
**A.** 0.023 µM

**Q.** With `c1ccc(Cc2ccc(OCC3CN(Cc4ccccc4)CCN3)cc2)cc1` (configuration not stated) as the compound, how does the IC50 [1] read?
**A.** 0.66 µM

**Q.** `c1ccc(Cc2ccc(OCC3CNCCN3)cc2)cc1` (configuration not stated) was tested. Which IC50 [1] did it give?
**A.** 0.342 µM

**Q.** Which results are given for `Clc1ccc(Oc2ccc(OC[C@@H]3CCCCN3)cc2)cc1`?
**A.** IC50 [1]: 0.11 µM; IC50 [2]: 0.04 µM

**Q.** What does the source list for `c1ccc(Cc2ccc(OC[C@H]3CCCCN3)cc2)cc1`?
**A.** IC50 [1]: 0.094 µM; IC50 [2]: 0.06 µM

**Q.** Which results are given for `c1ccc(Oc2ccc(OC[C@H]3CCCCN3)cc2)cc1`?
**A.** IC50 [1]: 0.048 µM; IC50 [2]: 0.126 µM

**Q.** With `c1ccc(Oc2ccc(OC[C@@H]3CCCCN3)cc2)cc1` as the compound, how does the IC50 [1] read?
**A.** 0.044 µM

**Q.** And the IC50 [2]?
**A.** 0.286 µM

**Q.** What does the source list for `FC(F)(F)c1ccc(Oc2ccc(OC[C@H]3CCCCN3)cc2)cc1`?
**A.** IC50 [1]: 0.093 µM; IC50 [2]: 0.173 µM

**Q.** What does the source list for `c1ccc(Oc2ccc(OCC3CCCCN3)cc2)cc1` (racemic)?
**A.** IC50 [1]: 0.07 µM; IC50 [2]: 0.207 µM

**Q.** What does the source list for `c1ccc(Cc2ccc(OCC3CCCCN3)cc2)cc1` (racemic)?
**A.** IC50 [1]: 0.134 µM; IC50 [2]: 0.105 µM
